Among the data in article PMC5698726, “Allosteric Tuning of Caspase‐7: A Fragment‐Based Drug Discovery Approach” (Angewandte Chemie (International Ed. in English), 2017) are Ki, Kd and IC50 values, retold here.

For test [1], the target named is T1, caspase-7 (C7) (Homo sapiens, UniProt P55210).
T1 construct: gene CASP7; mature (processed, active) caspase-7, dimer, 6xHis tag; expression details only in supplement
T1 sequence (P55210 24-198): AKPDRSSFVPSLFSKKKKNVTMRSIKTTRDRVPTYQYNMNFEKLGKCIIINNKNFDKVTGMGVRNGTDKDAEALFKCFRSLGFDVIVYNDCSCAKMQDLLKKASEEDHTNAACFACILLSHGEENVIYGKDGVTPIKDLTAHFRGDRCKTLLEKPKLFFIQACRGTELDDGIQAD
T1 sequence (P55210 207-303): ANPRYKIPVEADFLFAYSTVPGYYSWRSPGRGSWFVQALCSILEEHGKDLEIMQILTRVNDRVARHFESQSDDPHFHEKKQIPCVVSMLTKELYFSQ
As to the kind of experiment: steady-state kinetics, Ac-DEVD-AFC cleavage. Type of test: biochemical.

The target of test [2] is T1, caspase-7 (C7). As to the kind of experiment: SPR OneStep injection, His-captured protein, […] fit. Type of test: binding. Conditions: read-out: Dissociation constant.
In test [3] the target is T1, caspase-7 (C7). As to the kind of experiment: fluorogenic Ac-DEVD-AFC cleavage assay. Type of test: biochemical.

At caspase-7 (C7) [1], `CC(=O)c1ccccc1Sc1ccccc1C(=O)O` [compound 1, 1] returned an inhibition constant Ki of 5.47 ± 0.398 mM. In addition, at caspase-7 (C7) [2], the Kd came out at 8 ± 3 mM. Also, the IC50 on caspase-7 (C7) [3] is 3.98 ± 0.00105 mM.

With `O=C(O)C1c2ccccc2Oc2ccccc21` [compound 2, 2], the inhibitory constant (Ki) on caspase-7 (C7) [1] turned out to be 4.32 ± 0.194 mM. Further, the Kd at caspase-7 (C7) [2] was 4.09 ± 0.3 mM. For the same compound, the half-maximal inhibitory concentration (IC50) at caspase-7 (C7) [3] came to 8.52 ± 0.0012 mM.

In turn, `O=C(O)Cc1ccccc1Sc1ccccc1` [compound 6, 6] gave an inhibitory constant (Ki) at caspase-7 (C7) [1] of 0.667 ± 0.0319 mM. On caspase-7 (C7) [3], the 50% inhibitory concentration (IC50) was determined as 0.637 ± 0.00104 mM.
